Data set [1] concerns Trypanosoma cruzi. Put plainly: microbe, parasite or virus in culture. As to conditions: Trypanosoma cruzi, Tulahuen LacZ, Clone C4. The class given is functional, Tulahuen LacZ, Clone C4.
Data set [2] has as its system Trypanosoma cruzi. Put plainly: microbe, parasite or virus in culture. The format is functional, organism-based, Tulahuen LacZ, Clone C4. Conditions: Trypanosoma cruzi, Tulahuen LacZ, Clone C4.
A short description of data set [3]: DNDI: Cytotoxicity against L-6 rat myoblasts from skeletal muscle cells. As to conditions: L6 rat skeletal muscle myoblast cells, IC50.

Where only a bound is given, the exact number is not on record here.

By IC90 is commonly meant the concentration needed for an effect of 90%. A lower IC90 goes with an effect from little substance. Usually IC50 stands for the concentration at which inhibition is half-maximal. A high value points to weaker potency in that assay. Regarding `O=S(=O)(c1ccc(Cl)cc1)N1CCN(C(c2ccc(Cl)cc2)c2cncnc2)CC1` (stereo not drawn), the 90% effect concentration (IC90) in data set [1] turned out to be 460 nM. Further, the IC50 in data set [2] stood at 130 nM; in data set [3] it was 29000 nM.

On to `O=S(=O)(Cc1ccccc1)N1CCN(C(c2ccc(Cl)cc2)c2cncnc2)CC1` (stereo not drawn), for which the IC90 in data set [1] was determined as 620 nM. Besides, the half-maximal inhibitory concentration (IC50) in data set [2] turned out to be 220 nM; in data set [3], 63000 nM.

`O=C1OC(c2ccc(Cl)cc2)(c2cccnc2)c2ccccc21` (stereo not drawn) gave an IC90 in data set [1] of 870 nM. Further, the IC50 in data set [2] worked out at 230 nM; in data set [3] it was 84800 nM.

Consider `O=S(=O)(C1CCCCC1)N1CCN(C(c2ccc(Cl)cc2)c2cncnc2)CC1` (stereo not drawn), for which the concentration for an effect of 90% (IC90) in data set [1] was 850 nM. Also, the concentration for half-maximal inhibition (IC50) in data set [2] came out at 65 nM; in data set [3], 56300 nM.

`CS(=O)(=O)N1CCN(C(c2ccc(Cl)cc2)c2cncnc2)CC1` (stereo not drawn): the 90% effect level in data set [1] (IC90) was put at 7540 nM. Further, the values for the IC50 in data set [2] and in data set [3] were 880 nM and above 100000 nM, respectively.

`O=S(=O)(NC1CCN(C(c2ccc(C(F)(F)F)cc2)c2cnccn2)CC1)c1ccc(C(F)(F)F)cc1` (stereo not drawn): the concentration for an effect of 90% (IC90) in data set [1] was above 1000 nM. The IC50 was 590 nM in data set [2] and 18100 nM in data set [3].

`CCC(=O)N1CCN(C(c2ccc(Cl)cc2)c2cncnc2)CC1` (stereo not drawn) yielded an IC90 in data set [1] of 4830 nM. For the same compound, the IC50 in data set [2] is 850 nM; in data set [3], above 100000 nM.

On to `CN(C)C(=O)NC1CCN(C(c2ccc(C(F)(F)F)cc2)c2cnccn2)CC1` (stereo not drawn), for which the IC90 in data set [1] is above 1000 nM. For the same compound, the IC50 in data set [2] is 250 nM; in data set [3] it was above 100000 nM.

As for `CC(C)c1ccc(S(=O)(=O)NC2CCN(C(c3ccc(C(F)(F)F)cc3)c3cnccn3)CC2)cc1` (stereo not drawn), the 90% effect concentration (IC90) in data set [1] was above 1000 nM. In addition, the IC50 in data set [2] is 520 nM; in data set [3], 18400 nM.

As to `O=C(C1CC1)N1CCN(C(c2ccc(Cl)cc2)c2cncnc2)CC1` (stereo not drawn), in data set [1], the IC90 turned out to be 920 nM. For the same compound, the values for the concentration for half-maximal inhibition (IC50) in data set [2] and in data set [3] were 500 nM and above 100000 nM, respectively.

In turn, `CC(C)(C)OC(=O)NC1CCN(C(c2cnccn2)c2ccc(F)cc2F)CC1` (stereo not drawn) had a 90% effect concentration (IC90) in data set [1] of 650 nM. For the same compound, the IC50 in data set [2] was 260 nM; in data set [3], above 100000 nM.

As to `O=S(=O)(NC1CCN(C(c2ccc(C(F)(F)F)cc2)c2cnccn2)CC1)c1ccc(Cl)cc1` (stereo not drawn), in data set [1], the 90% effect concentration (IC90) is above 1000 nM. The concentration for half-maximal inhibition (IC50) was determined as 700 nM in data set [2] and 18900 nM in data set [3].

`O=C(C1CCCCC1)N1CCN(C(c2ccc(Cl)cc2)c2cncnc2)CC1` (stereo not drawn) gave a concentration for an effect of 90% (IC90) in data set [1] of 920 nM. In addition, the IC50 in data set [2] was 320 nM; in data set [3], above 100000 nM.

`CC(C)S(=O)(=O)N1CCN(C(c2ccc(Cl)cc2)c2cncnc2)CC1` (stereo not drawn) returned an IC90 in data set [1] of 720 nM. Moreover, the IC50 in data set [2] was 230 nM; in data set [3], above 100000 nM.

`CC(C)(C)OC(=O)N1CCC(NC(c2cnccn2)c2ccc(F)cc2F)CC1` (stereo not drawn) displayed a concentration for an effect of 90% (IC90) in data set [1] of 710 nM. The IC50 in data set [2] was 210 nM; in data set [3] it was above 100000 nM.

In data set [1], `CCC(=O)NC1CCN(C(c2ccc(C(F)(F)F)cc2)c2cnccn2)CC1` (stereo not drawn) came in with an IC90 of 7600 nM. For the same compound, the figures for the IC50 in data set [2] and in data set [3] were 1040 nM and above 100000 nM, respectively.

In data set [1], `O=S(=O)(Cc1ccccc1)NC1CCN(C(c2ccc(C(F)(F)F)cc2)c2cnccn2)CC1` (stereo not drawn) returned a 90% effect concentration (IC90) of 780 nM. Moreover, the IC50 amounted to 310 nM in data set [2] and 54900 nM in data set [3].

As for `O=S(=O)(c1ccc(C(F)(F)F)cc1)N1CCN(C(c2ccc(Cl)cc2)c2cncnc2)CC1` (stereo not drawn), the IC90 in data set [1] is above 1000 nM. Besides, the IC50 amounted to 290 nM in data set [2] and 57000 nM in data set [3].

On to `Clc1ccc(C(c2cncnc2)N2CCNCC2)cc1` (stereo not drawn), for which the IC90 in data set [1] was above 1000 nM. For the same compound, the IC50 in data set [2] is above 1000 nM; in data set [3], above 100000 nM.

`CCS(=O)(=O)N1CCN(C(c2ccc(Cl)cc2)c2cccnc2)CC1` (stereo not drawn) had a 90% effect concentration (IC90) in data set [1] of 140 nM. For the same compound, the IC50 in data set [2] was 47 nM; in data set [3], above 100000 nM.

In data set [1], `O=C(NCc1ccccc1)c1cccc(C(O)(c2ccc(Cl)cc2)c2cccnc2)c1` (stereo not drawn) showed an IC90 of 400 nM. The results for the half-maximal inhibitory concentration (IC50) in data set [2] and in data set [3] were 160 nM and 84000 nM, respectively.

For the origin of these results see ChEMBL document CHEMBL1862790, “Optimisation of fenarimol series for the treatment of Chagas disease”.
